Data on five compounds can be found in patent publication US20150353515A1, “Novel analogs of resveratrol” (priority 2014, published 2015).

In general, IC50 refers to the point on the concentration scale where inhibition reaches its midpoint. A lower IC50 goes with higher potency.

Assay [1] deals with RAW 264.7 macrophage cell line (LPS-stimulated NO production). The experiment in a line: Nitric oxide inhibition: nitrite quantification with Griess reagent in LPS-stimulated macrophage cells. Format: cell-based, mouse. As to conditions: nitrite in supernatant of LPS (100 ng/ml)-stimulated RAW 264.7 cells, 24 h, lowest tested concentration 25 μM. From the text:
The mouse BALB/c macrophage cell line, RAW 264.7 BCRC No. 60001 (identical to ATCC number TIB-71), was obtained from Bioresource Collection and Research Center, Taiwan. The cells were maintained according to the protocols being cultured in 50 cm^2 plastic flasks (Nunc, Roskilde, Denmark) with the medium renewed every 3 days. LPS (from Escherichia coli, serotype 0127:B8), trypan blue and all the other chemicals, unless otherwise specified, were purchased from Aldrich-Sigma Chemical Company (St. Louis, Mo., USA).
The cells were cultured with or without a pretreatment by the test compounds and resveratrol of 25, 50, 100, and up to 200 μM as already described. Each value is the mean±SEM of three determinations. *p<0.05, each value was compared with or without the LPS-stimulated group.
The production of NO was determined by measuring the accumulated level of nitrite in the culture supernatant with the Griess reagent in LPS-stimulated macrophage cells. A quantity of 100 μl of a sample aliquot were mixed with 100 μl of the Griess reagent (0.1% N-(1-naphthyl)ethylenediamine, 1% sulfanilamide, and 2.5% phosphoric acid) in a 96-well plate and then incubated at 25° C. for 10 min. The absorbance at 550 nm was measured with an ELISA reader (MR 700, Dynatech Laboratories, Alexandria, Va., USA). NaNO2 was used as the standard to calculate the nitrite concentration.
On the technique in general: Nitrite, measured by Griess reagent, commonly stands in for NO production.

Assay [2] has as its system human umbilical vein endothelial cells (HUVECs) co-cultured with normal human dermal fibroblasts (NHDF). Briefly: Anti-angiogenesis: capillary-tube formation assay (Kurabo angiogenesis kit). As to conditions: HUVEC tube formation inhibition, HUVEC/NHDF co-culture, 11 d, 1-100 μM. Format: cell-based. How it is done:
Capillary-tube formation was assayed using the angiogenesis kits (Kurabo, Okayama, Japan) according to the manufacturer's instruction. Briefly, human umbilical vein endothelial cells (HUVECs) co-cultured with normal human dermal fibroblasts (NHDF), which a cultural kit originally developed by Kurabo Co. Ltd., Okayama, Japan, onto 24-well plate were incubated either with or without test compounds and resveratrol respectively at appropriate concentrations (1-100 μM) for 11 d (media replacement was performed at d 1, 4, 7, and 9). The cells were thereafter fixed with 70% cold ethanol, incubated with mouse antihuman CD31 antibody followed by incubation with an alkaline phosphatase conjugate goat antimouse antibody, and then stained with 5-bromo-4-chloro-3-indolyl phosphate/nitro blue tetrazolium to visualize tube network at d-11, respectively. In each assay, randomly selected five fields of view in each well were captured by digital camera under the light microscopy on ×40 magnification. The analysis of tube formation was then carried out by measuring total area and length of tubes per well using analytical software (by Kurabo).

Assay [3] deals with λ-carrageenan-induced paw edema in Wistar rats. The experiment in a line: In-vivo carrageenan-induced paw edema study. Particulars: rat, 20 mg/kg i.p. single dose in CMC, 5 h after carrageenan. The procedure:
In this study, X-carrageenan was used to stimulate the inflammation on the rear footpad of the rats. Male albino Wistar rats (183-218 g) 4 to 6 weeks old were housed and cared under the guidelines of the Institutional Animal Care and Use Committee at the National Defense Medical Center, Taiwan. The rats were assigned to groups. For each group, 3 rats were used and marked on the tails. one of them being the control. In order to induce inflammation, 50 μl of a 1% λ-carrageenan solution in normal saline was injected into the right hind paw subplantar tissue. The development of paw edema was measured plethysmographically (Basile 7140 plethysmometer, Ugo, Varese, Italy) and recorded prior to this administration. […] Before carrageenan treatment, the volume of each […] footpad was measured (V0). […] After the λ-carrageenan challenge, each paw volume (ml) was measured hourly up to 5 h. The percentage of paw edema and the inhibition of inflammation were calculated. Edema rate (E %) was calculated as follows: E%=(Vt-V0)/V0×100; V0: volume of hind paw before 1% λ-carrageenan administration; Vt: volume of hind paw after 1% carrageenan administration at t h. Percentage of inhibition (1%) was determined as follows: 1%(Ec-Et)/Ec×100; Ec: edema rate of control group; Et: edema rate of the respective test compound at t h. […]
In general terms: Carrageenan injected into the paw causes an acute inflammation.

For `CC[n+]1c(/C=C/c2ccc(OC)cc2O)sc2ccccc21` [Compound 3, N-Ethyl-2-[(E)-2-(2′-hydroxy-4′-methoxyphenyl)vinyl]benzothiazolium bromide], the half-maximal inhibitory concentration (IC50) in assay [1] was below 25 µM; in assay [2] it was 31.2 ± 2 µM.

`CC[n+]1c(/C=C/c2cc(OC)c(O)c(OC)c2)sc2ccccc21` [Compound 5, N-Ethyl-2-[(E)-2-(3′,5′-dimethoxy-4′-hydroxyphenyl)vinyl]benzothiazolium bromide]: the values for the IC50 in assay [1] and in assay [2] were below 25 µM and 21.2 ± 1.6 µM, respectively.

Regarding `CC[n+]1c(/C=C/c2ccc(O)c(OC)c2)sc2ccccc21` [Compound 6, N-Ethyl-2-[(E)-2-(4′-hydroxy-3′-methoxyphenyl)vinyl]benzothiazolium bromide], the IC50 was below 25 µM in assay [1] and 19.9 ± 2.3 µM in assay [2].

As for `Oc1ccc(/C=C/c2cc(O)cc(O)c2)cc1` [Resveratrol (1), 3,5,4′-trihydroxy-trans-stilbene, reference compound], the IC50 is 40 µM in assay [1] (Mus musculus, RAW264.7) and 47.7 ± 1.1 µM in assay [2] (Homo sapiens, 264 h).

Turning to “N-Ethyl-2-[(E)-2-(3′,4′,5′-trimethoxyphenyl)vinyl]benzothiazolium bromide [Compound 4]”, the IC50 was below 25 µM in assay [1] and 18.8 ± 1.3 µM in assay [2]. Moreover, the “Percentage of inhibition of paw edema” value in assay [3] amounted to 69.5%. Also, the “paw edema (increase of paw volume)” value in assay [3] (p<0.05) amounted to 0.21 ± 0.06 mL.
